Data as given in patent US9617267B2, “Compounds and methods for kinase modulation, and indications therefor” (Plexxikon Inc., priority 2009, dated 2017).
Read-outs that look alike come from different tables or passages of the source.

Tests used:
[1] = tested on: B-Raf; experiment: B-Raf kinase activity biochemical assay (AlphaScreen, biotin-MEK1 phosphorylation); settings: for Biochemical activity ratio B/V600E: ratio of IC50 B-Raf / B-Raf V600E; for Biochemical activity ratio B/C: ratio of IC50 B-Raf / c-Raf-1
Description: (§1) Compounds to be tested are diluted in dimethyl sulfoxide to a concentration of 0.1 mM. These are serially diluted 15 μL into 30 μL of dimethyl sulfoxide seven times in 96 well plates for a total of 8 dilution points, and for each dilution point 1 μL is added to a well of an assay plate. […] The reaction is started with addition of 10 μL of 200 μM ATP (i.e. final 100 μM ATP). After incubation of the kinase reaction for 45 minutes at room temperature, 5 μL/well of Stop Solution is added (25 mM Hepes pH 7.5, 100 mM EDTA, 0.01% BSA with donor beads (Streptavidin coated beads, Perkin Elmer), acceptor beads (Protein A coated, Perkin Elmer), and anti phosphor MEK1/2 antibody (CellSignal), each at final concentration 10 μg/mL). The plates are incubated for 3 hours at room temperature and read on Envision reader (Perkin Elmer). […] The signal vs. compound concentration is used to determine the IC50.

[2] = target: B-Raf (Homo sapiens (Human), UniProt P15056); experiment: as above; settings: B-Raf
B-Raf (Homo sapiens (Human), UniProt P15056), sequence (P15056 whole entry): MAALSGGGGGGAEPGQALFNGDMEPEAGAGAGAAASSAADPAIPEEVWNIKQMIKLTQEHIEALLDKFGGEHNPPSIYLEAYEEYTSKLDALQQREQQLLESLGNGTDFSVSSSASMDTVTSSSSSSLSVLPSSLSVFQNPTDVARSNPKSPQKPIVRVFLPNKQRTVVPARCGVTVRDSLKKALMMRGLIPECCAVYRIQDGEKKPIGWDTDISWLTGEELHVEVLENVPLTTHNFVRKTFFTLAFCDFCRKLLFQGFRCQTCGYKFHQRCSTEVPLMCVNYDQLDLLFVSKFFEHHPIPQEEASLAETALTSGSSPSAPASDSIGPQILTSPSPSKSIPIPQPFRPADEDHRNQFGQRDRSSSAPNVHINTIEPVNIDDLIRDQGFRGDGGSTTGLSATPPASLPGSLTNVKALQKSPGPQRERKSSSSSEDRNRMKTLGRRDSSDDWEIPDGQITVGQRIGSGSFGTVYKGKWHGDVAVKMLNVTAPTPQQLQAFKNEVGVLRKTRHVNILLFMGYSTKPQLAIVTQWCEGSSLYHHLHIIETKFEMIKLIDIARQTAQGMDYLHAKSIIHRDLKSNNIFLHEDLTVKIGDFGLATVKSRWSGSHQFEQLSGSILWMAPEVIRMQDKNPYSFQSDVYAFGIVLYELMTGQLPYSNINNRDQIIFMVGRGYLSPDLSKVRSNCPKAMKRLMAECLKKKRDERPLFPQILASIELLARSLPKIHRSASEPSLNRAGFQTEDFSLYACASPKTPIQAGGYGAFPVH
Description: as §1

[3] = target: B-Raf V600E (Homo sapiens (Human), UniProt P15056, V600E); experiment: B-Raf V600E kinase activity biochemical assay (AlphaScreen, biotin-MEK1 phosphorylation); settings: for IC50: B-Raf V600E; for Biochemical activity ratio V600E/C: ratio of IC50 B-Raf V600E / c-Raf-1
B-Raf V600E, sequence (P15056 whole entry V600E): as the sequence (P15056 whole entry) above, with V600E counted along it
Description: as §1

[4] = target: CYP2D6 (Homo sapiens (Human), UniProt P10635); experiment: CYP enzyme inhibition, fluorescent substrate (AMMC); format: in vitro ADME; settings: read-out: Cyp IC50 2D6
CYP2D6, sequence (P10635 whole entry): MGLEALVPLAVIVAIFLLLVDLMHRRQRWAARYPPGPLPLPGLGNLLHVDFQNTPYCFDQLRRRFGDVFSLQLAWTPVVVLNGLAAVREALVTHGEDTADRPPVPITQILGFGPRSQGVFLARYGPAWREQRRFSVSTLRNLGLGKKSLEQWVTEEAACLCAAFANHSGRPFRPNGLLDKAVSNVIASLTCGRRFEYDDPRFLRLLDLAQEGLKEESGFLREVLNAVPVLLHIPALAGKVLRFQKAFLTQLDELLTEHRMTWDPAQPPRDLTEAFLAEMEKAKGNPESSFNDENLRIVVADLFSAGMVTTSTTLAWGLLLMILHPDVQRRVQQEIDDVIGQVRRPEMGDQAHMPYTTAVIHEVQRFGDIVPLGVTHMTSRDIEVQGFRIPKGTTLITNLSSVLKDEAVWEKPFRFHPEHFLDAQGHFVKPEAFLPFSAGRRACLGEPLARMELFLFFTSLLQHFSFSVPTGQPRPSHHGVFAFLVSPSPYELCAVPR
Description: (§2) CYP (Cytochrome P450) enzymes are the major drug metabolizing enzymes present in the liver. The inhibition of CYP enzyme activity (IC50) for each of CYP1A2, CYP2C19, CYP2C9, CYP2D6, CYP3A4(BFC) and CYP3A4(BQ) is determined for compounds, where inhibition of metabolism of a known substrate leads to a decrease in the fluorescence of the metabolized product. The fluorescence of the product is monitored as a function of compound concentration.
(§3) Compounds are dissolved in dimethyl sulfoxide to a concentration of 100 mM. These are diluted 1 μL into 82 μL of acetonitrile. An 11 μL aliquot of this solution is then added to 204 μL of cofactor mix (1.3% NADPH Regeneration system Solution A, 1.04% NADPH Regeneration system Solution B from BD Biosciences, 5% acetonitrile and 0.05% dimethyl sulfoxide). These are then serially diluted 1:1 (160 μL to 160 μL co-factor mix) for a total of 10 points. A 10 μL aliquot of this final mixture is dispensed into 384 well assay plates and incubated for 10 minutes at 37° C. Enzyme and substrate mix (10 μL; 0.5 pmol CYP1A2/5 μM CEC; 1.0 pmol CYP2C9/75 μM MFC; 0.5 pmol CYP2C19/25 μM CEC; 1.5 pmol CYP2D6/1.5 μM AMMC; 1.0 pmol CYP3A4/50 μM BFC; or 1.0 pmol CYP3A4/40 μM BQ) is added to these assay plates. Assay plates are incubated at 37° C. (CYP1A2-15 min; CYP2C9-45 min; CYP2C19, 2D6 and 3A4-30 min) and read in a Tecan Safire 2 plate reader (CYP1A2, 2C19 and 3A4 409 ex/460 em; CYP2C9 and 2D6 409 ex/530 em). The signal versus compound concentration is used to determine the IC50. The enzymes and substrates for this assay are obtained from BD Biosciences.

[5] = Relative solubility by turbidity threshold concentration in aqueous buffers (pH 1.5, 4.5, 6.8, 7.4); format: physicochemical; settings: for turbidity threshold (L, M, H) 1.4: pH 1.4 [sic] (method: SGF pH 1.5); for turbidity threshold (L, M, H) 6.8: pH 6.8 (SIF); for turbidity threshold (L, M, H) 7.4: pH 7.4 (HEPES)
Outline: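 Solubility class (high >250 μM, moderate 31.3–250 μM, low <31.3 μM) comes from the concentration where absorbance reaches a 0.01 threshold, averaged across 490/535/650 nm. Samples were compound dilutions from DMSO stock, 1 μL into 99 μL buffer at pH 1.5, 4.5, 6.8 or 7.4.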

[6] = target: CYP3A4(BFC) (Homo sapiens (Human), UniProt P08684); experiment: CYP enzyme inhibition, fluorescent substrate BFC; settings: read-out: Cyp IC50 3A4(BFC); CYP3A4, substrate BFC
CYP3A4(BFC), sequence (P08684 whole entry): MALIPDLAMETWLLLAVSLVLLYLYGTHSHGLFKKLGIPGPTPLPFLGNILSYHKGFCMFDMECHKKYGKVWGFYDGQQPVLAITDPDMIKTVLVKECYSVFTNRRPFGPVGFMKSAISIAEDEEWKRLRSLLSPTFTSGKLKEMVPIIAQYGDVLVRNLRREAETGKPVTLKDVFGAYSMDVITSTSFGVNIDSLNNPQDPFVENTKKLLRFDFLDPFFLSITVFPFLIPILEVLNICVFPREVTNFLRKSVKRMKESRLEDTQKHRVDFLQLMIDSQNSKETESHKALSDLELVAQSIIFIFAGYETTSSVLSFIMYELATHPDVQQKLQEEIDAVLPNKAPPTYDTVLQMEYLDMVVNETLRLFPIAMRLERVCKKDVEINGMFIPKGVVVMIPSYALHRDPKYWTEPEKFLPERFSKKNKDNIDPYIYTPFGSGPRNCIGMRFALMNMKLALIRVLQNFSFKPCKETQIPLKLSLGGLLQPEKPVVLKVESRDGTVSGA
Description: as §2
(§4) Compounds are dissolved in dimethyl sulfoxide to a concentration of 100 mM. These are diluted 1 μL into 82 μL of acetonitrile. […] These are then serially diluted 1:1 (160 μL to 160 μL co-factor mix) for a total of 10 points. A 10 μL aliquot of this final mixture is dispensed into 384 well assay plates and incubated for 10 minutes at 37° C. […] Assay plates are incubated at 37° C. […] The signal versus compound concentration is used to determine the IC50. The enzymes and substrates for this assay are obtained from BD Biosciences.

[7] = target: CYP2C19 (Homo sapiens (Human), UniProt P33261); experiment: CYP enzyme inhibition, fluorescent substrate (CEC)
CYP2C19, sequence (P33261 whole entry): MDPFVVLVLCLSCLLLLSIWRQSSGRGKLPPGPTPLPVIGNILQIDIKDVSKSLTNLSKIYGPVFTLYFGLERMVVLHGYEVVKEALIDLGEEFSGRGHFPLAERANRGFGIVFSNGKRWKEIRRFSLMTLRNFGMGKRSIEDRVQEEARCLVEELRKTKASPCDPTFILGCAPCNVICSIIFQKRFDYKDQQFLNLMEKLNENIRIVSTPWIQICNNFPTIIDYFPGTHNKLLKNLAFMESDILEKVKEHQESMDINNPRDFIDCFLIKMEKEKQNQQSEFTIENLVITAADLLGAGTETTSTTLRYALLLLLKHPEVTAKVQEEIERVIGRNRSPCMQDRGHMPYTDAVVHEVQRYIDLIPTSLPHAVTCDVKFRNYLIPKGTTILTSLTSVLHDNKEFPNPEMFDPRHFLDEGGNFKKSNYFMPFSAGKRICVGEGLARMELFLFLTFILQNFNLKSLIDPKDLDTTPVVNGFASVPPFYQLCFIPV
Description: as §2, §4

[8] = target: CYP1A2 (Homo sapiens (Human), UniProt P05177); experiment: CYP enzyme inhibition, fluorescent substrate (CEC)
CYP1A2, sequence (P05177 whole entry): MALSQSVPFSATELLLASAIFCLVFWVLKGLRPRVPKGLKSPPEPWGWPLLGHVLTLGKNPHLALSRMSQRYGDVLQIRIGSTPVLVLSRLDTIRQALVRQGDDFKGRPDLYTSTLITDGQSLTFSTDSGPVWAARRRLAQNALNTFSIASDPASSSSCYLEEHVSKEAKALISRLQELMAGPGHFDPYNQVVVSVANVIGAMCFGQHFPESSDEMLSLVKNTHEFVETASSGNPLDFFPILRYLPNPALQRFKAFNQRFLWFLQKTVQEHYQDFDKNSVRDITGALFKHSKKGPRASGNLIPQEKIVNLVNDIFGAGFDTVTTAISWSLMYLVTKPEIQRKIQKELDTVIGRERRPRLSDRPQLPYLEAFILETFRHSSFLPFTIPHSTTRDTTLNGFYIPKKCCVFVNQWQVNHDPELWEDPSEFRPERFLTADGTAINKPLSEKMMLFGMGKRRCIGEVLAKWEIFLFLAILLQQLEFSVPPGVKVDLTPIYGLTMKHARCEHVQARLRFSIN
Description: as §2, §3

[9] = target: CYP2C9 (Homo sapiens (Human), UniProt P11712); experiment: CYP enzyme inhibition, fluorescent substrate (MFC); settings: read-out: Cyp IC50 2C9; CYP2C9, substrate MFC
CYP2C9, sequence (P11712 whole entry): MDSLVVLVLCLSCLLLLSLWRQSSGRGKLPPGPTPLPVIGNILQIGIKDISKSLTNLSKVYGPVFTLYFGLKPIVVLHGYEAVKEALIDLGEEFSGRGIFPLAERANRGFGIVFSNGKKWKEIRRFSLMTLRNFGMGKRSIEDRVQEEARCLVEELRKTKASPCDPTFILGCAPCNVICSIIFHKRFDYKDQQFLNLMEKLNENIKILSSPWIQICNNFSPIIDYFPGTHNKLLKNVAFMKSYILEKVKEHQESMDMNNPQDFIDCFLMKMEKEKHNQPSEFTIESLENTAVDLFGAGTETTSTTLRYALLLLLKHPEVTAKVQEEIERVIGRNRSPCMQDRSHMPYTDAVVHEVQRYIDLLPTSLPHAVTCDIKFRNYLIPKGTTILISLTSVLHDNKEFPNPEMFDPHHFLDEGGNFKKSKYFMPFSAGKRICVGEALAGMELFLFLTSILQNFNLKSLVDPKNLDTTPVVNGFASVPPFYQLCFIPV
Description: as §2, §4

[10] = target: c-Raf-1 (Homo sapiens, UniProt P04049); experiment: c-Raf-1 kinase activity biochemical assay (AlphaScreen, biotin-MEK1 phosphorylation)
c-Raf-1, sequence (P04049 whole entry, looked up): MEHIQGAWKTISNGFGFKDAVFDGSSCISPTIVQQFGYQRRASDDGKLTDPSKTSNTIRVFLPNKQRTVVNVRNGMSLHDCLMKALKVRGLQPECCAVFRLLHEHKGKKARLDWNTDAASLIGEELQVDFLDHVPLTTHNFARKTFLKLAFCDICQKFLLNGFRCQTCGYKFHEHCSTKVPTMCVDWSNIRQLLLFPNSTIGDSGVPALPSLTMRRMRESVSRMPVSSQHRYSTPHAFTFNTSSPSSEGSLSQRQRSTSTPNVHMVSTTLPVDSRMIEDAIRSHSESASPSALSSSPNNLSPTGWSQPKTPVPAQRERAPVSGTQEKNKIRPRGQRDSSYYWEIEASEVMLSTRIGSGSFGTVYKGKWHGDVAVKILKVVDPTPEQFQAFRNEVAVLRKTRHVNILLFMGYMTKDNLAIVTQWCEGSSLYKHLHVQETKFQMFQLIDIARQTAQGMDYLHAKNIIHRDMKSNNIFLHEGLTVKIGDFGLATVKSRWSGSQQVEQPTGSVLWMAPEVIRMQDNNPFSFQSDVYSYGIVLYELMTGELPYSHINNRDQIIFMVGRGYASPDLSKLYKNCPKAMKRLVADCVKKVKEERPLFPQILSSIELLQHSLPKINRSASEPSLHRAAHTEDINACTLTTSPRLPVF
Description: as §1

[11] = read-out: Cyp IC50 2C19, CYP2C19, substrate CEC

Row | SMILES | Biochemical activity ratio B/V600E [1] | Biochemical activity ratio B/C [1] | IC50 [2] [µM] | IC50 [3] [µM] | Biochemical activity ratio V600E/C [3] | IC50 [4] [µM] | turbidity threshold (L, M, H) 1.4 [5] | turbidity threshold (L, M, H) 6.8 [5] | turbidity threshold (L, M, H) 7.4 [5] | IC50 [6] [µM] | IC50 [7, 11] [µM] | IC50 ([8]; read-out: Cyp IC50 1A2, CYP1A2, substrate CEC) [µM] | IC50 [9] [µM] | IC50 [10] [µM] | IC50 ([8]; human, 15 min) [µM] | turbidity threshold (L, M, H) 4.5 ([5]; pH 4.5 (SIF)) | IC50 [7] [µM]
1 | O=C(c1c(F)ccc(NS(=O)(=O)c2ccc(C(F)(F)F)cc2)c1F)c1c[nH]c2ncnc(Cl)c12 [P-1016, N-[3-(4-Chloro-7H-pyrrolo[2,3-d]pyrimidine-5-carbonyl)-2,4-difluoro-phenyl]-4-trifluoromethyl-benzenesulfonamide] | 0.1-10 | >10 | > 0.1 | > 0.1 | >10 | > 10 | L (low solubility if the threshold concentration is <31.3 μM) | L (low solubility if the threshold concentration is <31.3 μM) | H (high solubility if the threshold concentration is >250 μm) | > 10 | > 10 | > 10 | > 10 | < 0.1 | – | – | –
2 | CC(C)CNc1ncnc2[nH]cc(C(=O)c3c(F)ccc(NS(=O)(=O)c4ccc(C(F)(F)F)cc4)c3F)c12 [P-1020, N-[2,4-Difluoro-3-(4-isobutylamino-7H-pyrrolo[2,3-d]pyrimidine-5-carbonyl)-phenyl]-4-trifluoromethyl-benzenesulfonamide] | 0.1-10 | >10 | < 0.1 | > 0.1 | >10 | > 10 | H (high solubility if the threshold concentration is >250 μm) | – | H (high solubility if the threshold concentration is >250 μm) | > 10 | > 10 | – | > 10 | < 0.1 | > 10 | – | –
3 | CCNc1ncnc2[nH]cc(C(=O)c3c(F)ccc(NS(=O)(=O)c4ccc(C(F)(F)F)cc4)c3F)c12 [P-1024, N-[3-(4-Ethylamino-7H-pyrrolo[2,3-d]pyrimidine-5-carbonyl)-2,4-difluoro-phenyl]-4-trifluoromethyl-benzenesulfonamide] | 0.1-10 | >10 | < 0.1 | > 0.1 | >10 | > 10 | M (moderate solubility if the threshold concentration is 31.3 μM to 250 μM) | L (low solubility if the threshold concentration is <31.3 μM) | L (low solubility if the threshold concentration is <31.3 μM) | > 10 | – | – | > 10 | < 0.1 | > 10 | L (low solubility if the threshold concentration is <31.3 μM) | 5 to 10
